# Measured values published in patent publication US20250092001A1, “NOVEL EXCITATORY AMINO ACID GLUTAMATE TRANSPORT MODULATORS AND METHODS USING THE SAME” (Drexel University, priority 2022, published 2025).
# Read-outs that look alike come from different tables or passages of the source.
# Key:
# [1] = Pharmacokinetics of GT467 and GT511 in rats, plasma and brain (IV, IP, PO); type: in vivo, rat; details: for AUC0-t: 0 to 24 hrs
# Method: Pharmacokinetics (PK) study for GT951 was conducted at Melior Discovery Services (Exton, PA). Fifteen male CD-1 mice 23-50 g was used for the study and the mice were housed 3 per cage. PK studies for GT467 and GT511 were conducted at Piramal Pharma solutions under approved protocols (Pune, India). One hundred and sixty-eight male Wistar rats were used for the study and housed 4 per cage. All animals were maintained on a standard 12 h light cycle and given free access to water and standard rodent chow. Food and water were available ad libitum. Animals were not fasted for any portion of the study and animals were acclimated to the animal care facility for seven days prior to the start of the experiment. The holding room and procedure room temperature was 21-23° C. and humidity was at 40-45% during the experiment (within the normal range of the care facility). All procedures were completed according to Institutional Animal Care and Use Committee (IACUC) approved protocols for housing and for PK studies.
# Rats were dosed with the drug and blood and brain samples were collected at 0.5, 1, 2, 4, 8 and 24 h time points. Blood was collected via the sub-lingual vein under anesthesia into tubes containing Na2EDTA as an anticoagulant. Plasma fraction was separated by centrifuging the samples at 10,000 rpm for 5 min and the plasma was transferred to a cryo tube and stored at −80 C. Animals were euthanized and the brain was rapidly removed on ice and weighed. Brain was homogenized in Milli Q water and the homogenate was stored at −80 C until further use. Bioanalysis of the samples was performed using the SCIEX QTRAP 5500 LCMS/MS system with Phenomenex synergy C18 column and carbamazepine as internal standard. A methanol extraction procedure was used to precipitate the proteins in the sample. In addition to the internal standards, drug free plasma and brain samples were prepared for calibration and quantification standards. All samples were within the detectable range of the standard curves. 50 μl of the sample was added to 200 μl of the working solution of the internal standard and centrifuged for 5 min at 10,000 rpm. 60 μl of the supernatant was added to 140 μl of water and mixed well prior to transferring them for quantitative analysis on LCMS.
# Specifically, rats were administered with GT467 or GT511 intraperitoneally (IP), intravenously (IV) or orally (PO). The concentration of the administered compounds measured at various timepoints in the plasma are depicted in FIGS. 4A and 4B, the concentrations of the administered compounds measured at various timepoints in the brain are depicted in FIGS. 5A and 5B.
# Furthermore, pharmacokinetic parameters such as the peak concentration (Cmax), the time to reach the peak concentration (Tmax), the area under curve from time 0 to T (i.e., 24 hrs) (AUC0-t), the area under curve from time 0 to infinite (AUC0-∞), the half-life (t1/2), the oral clearance (CL/F), the volume of distribution of drug observed (Vz_F_obs), and the percentage of bioavailability (% Bioavailability) were also measured or calculated.
# [2] = test system: Drosophila model of Huntington's Disease (Htt model); assay: Larval locomotion assay in Drosophila Huntington's disease model; type: in vivo; details: third instar larvae; concentrations as low as two-fold below EC50 and one-fold below EC50
# Text: FIG. 6A illustrate certain aspects of a locomotion assay used to assay the locomotive activities. […] FIGS. 6B and 6C depict the results of the locomotion assay results of wild-type Drosophila (“WT”), as well as Drosophila of a Huntington's disease model treated with vehicle (“Veh”) or with various concentrations of two exemplary GLT-1 modulators. […] The Drosophila Htt model is produced by crossing UAS-Htt([…]) male flies with elav-Gal4 virgin female flies. Both fly strains were purchased from Bloomington Drosophila Stock Center (BDSC, Indiana, USA). […] Locomotion assays were conducted by transferring the third instar larvae of flies to agar plates (FIG. 6A) and counting the number of grid lines crossed in 30 seconds.
# [3] = test system: Drosophila model of Huntington's disease; assay: Larval olfactory associative learning test; type: in vivo; details: Elav x Htt larvae; 3.53 nM GT467, […] GT511
# Method: FIG. 7A illustrates certain aspects of a larval olfactory associative learning used to test learning and memory. In FIG. 7A, larvae were trained with either a reinforcer solution containing sucrose (“LIN/SUC”) or a control of distilled water (“LIN/DW”). The trained larvae were then transferred to a dish having test odorant placed on one side and a control on the opposite side. […] The ΔRI (difference between LIN/SUC and LIN/DW performance scores) were then calculated for the high performers (FIG. 7B), low performers (FIG. 7C) and non-performers (FIG. 7D). […] Referring to FIG. 7A, Drosophila larvae were trained with either a reinforcer solution containing sucrose (“LIN/SUC”) or a control of distilled water (“LIN/DW”). The trained larvae were then transferred to a dish having test odorant placed on one side and a control on the opposite side. The ΔRI were then calculated for the high performers (FIG. 7B), low performers (FIG. 7C) and non-performers (FIG. 7D).
# [4] = test system: Drosophila model of Huntington's disease; assay: Longevity assay; type: in vivo; details: Huntington's disease model flies; up to about day 40
# Method: The longevity assay was performed according to Romero et al., Neuron, 57(1), 27-40 and Linford et al., JoVE (Journal of Visualized Experiments), (71). Briefly, 100 adult flies from wild type and HTT phenotype (male and female) were collected in each designated tube and fed with food containing the specific concentration of drug. Every 2-3 days the flies were moved into new vials with fresh food and drug. Dead flies were removed and the number of flies alive during each change is noted. The tunes were maintained until the last available fly and the data was plotted as a survival curve. FIG. 8A illustrates certain aspects of a longevity assay. FIG. 8B depicts the results of the longevity assay. […] The survival rates of the flies were recorded over time.
# [5] = test system: R6/2 mice (Huntington disease model); assay: Open field locomotion test; type: in vivo, mouse; details: 200 mg/kg, versus wild-type treated with vehicle
# Method: FIG. 9A depicts the results of a locomotion test. In the locomotion test of FIG. 9A, wildtype and R6/2 mice treated with vehicle or different doses of GTS467 (2, 4, and 10 mg/kg) or ceftriaxone (200 mg/kg) were subjected to the open field test to evaluate their locomotor abilities in a 44×44 cm and 43×43 cm square open field arena. Animals were placed individually in the open field arena and behavior was recorded for a period of 5 minutes under dim light and low noise conditions. Animal behavior was recorded using an overhead camera and the distance moved was recorded and quantified using the Noldus ethovision XT-14 software. FIG. 9B depicts the results of a memory task test. Referring to FIG. 9B, to test for memory impairment a novel object recognition assay was performed. A 44×44 cm square shaped open field arena was used to perform this test at week 12 and week 15. The behavioral evaluation was performed in 2 sets, each set having equal number of animals. […] The behavior was recorded under dim light and low noise conditions using an overhead camera. Cumulative duration with both the objects, total object exploration (sec), distance travelled (cm) was quantified using the Noldus ethovision XT 14 software. […]
# [6] = test system: R6/2 mice (Huntington disease model); assay: Novel object recognition assay; type: in vivo, mouse; details: 200 mg/kg, versus wild-type treated with vehicle
# Method: Referring to FIG. 9B, to test for memory impairment a novel object recognition assay was performed. A 44×44 cm square shaped open field arena was used to perform this test at week 12 and week 15. The behavioral evaluation was performed in 2 sets, each set having equal number of animals. The animals were subjected to habituation a day prior to the commencement of test for 5 min followed by familiarization with similar objects for 10 min and tested with different objects for 10 min on the following day. The behavior was recorded under dim light and low noise conditions using an overhead camera. Cumulative duration with both the objects, total object exploration (sec), distance travelled (cm) was quantified using the Noldus ethovision XT 14 software.
# [7] = male, Wistar, rat plasma, IP 10 mg/kg
# [8] = male, Wistar, rat plasma, IV 5 mg/kg
# [9] = male, Wistar, rat plasma, PO 10 mg/kg
structure (smiles),measurement,setting,value
"COc1ccc(NC(=O)C(=O)N2CCN(c3ccccc3)CC2)cc1 [GT511, N-(4-methoxyphenyl)-2-oxo-2-(4-phenylpiperazin-1-yl)acetamide]",AUC(0-inf),[1]; [7],1130 ng·h/mL
same,Cmax,[1]; [7],450 ng/mL
same,AUC0-t,"[1]; male, Wistar, rat plasma, IP 10 mg/kg, read-out: AUC0-t",1070 ng·h/mL
same,CL/F,"[1]; male, Wistar, rat plasma, IP 10 mg/kg, read-out: CL/F (converted)",149 mL/min/kg
same,AUC(0-inf),[1]; [8],995 ng·h/mL
same,Cmax,[1]; [8],567 ng/mL
same,AUC0-t,"[1]; male, Wistar, rat plasma, IV 5 mg/kg, read-out: AUC0-t",919 ng·h/mL
same,AUC(0-inf),[1]; [9],399 ng·h/mL
same,Cmax,[1]; [9],42.9 ng/mL
same,AUC0-t,"[1]; male, Wistar, rat plasma, PO 10 mg/kg, read-out: AUC0-t",322 ng·h/mL
same,CL/F,"[1]; male, Wistar, rat plasma, PO 10 mg/kg, read-out: CL/F (converted)",505 mL/min/kg
same,AUC0-∞,"[1]; rat brain, IP 10 mg/kg",467.11 ng·h/g
same,Tmax,"[1]; rat brain, IP 10 mg/kg",0.50 h
same,t1/2,"[1]; rat brain, IP 10 mg/kg",2.26 h
same,AUC0-t,"[1]; rat brain, IP 10 mg/kg",429.85 ng·h/g
same,AUC0-∞,"[1]; rat brain, IV 5 mg/kg",483.13 ng·h/g
same,Tmax,"[1]; rat brain, IV 5 mg/kg",0.50 h
same,t1/2,"[1]; rat brain, IV 5 mg/kg",1.52 h
same,AUC0-t,"[1]; rat brain, IV 5 mg/kg",443.23 ng·h/g
same,Tmax,"[1]; rat brain, PO 10 mg/kg",1.38 h
same,AUC0-t,"[1]; rat brain, PO 10 mg/kg",183.00 ng·h/g
same,% Bioavailability,"[1]; rat plasma, IP 10 mg/kg",58.36%
same,Tmax,"[1]; rat plasma, IP 10 mg/kg",0.63 h
same,Vz_F_obs,"[1]; rat plasma, IP 10 mg/kg",79.2212 L/kg
same,t1/2,"[1]; rat plasma, IP 10 mg/kg",6.22 h
same,CL/F,"[1]; rat plasma, IV 5 mg/kg",86.3097 mL/min/kg
same,Tmax,"[1]; rat plasma, IV 5 mg/kg",0.50 h
same,Vz_F_obs,"[1]; rat plasma, IV 5 mg/kg",41.46389 L/kg
same,t1/2,"[1]; rat plasma, IV 5 mg/kg",6.08 h
same,% Bioavailability,"[1]; rat plasma, PO 10 mg/kg",17.51%
same,Tmax,"[1]; rat plasma, PO 10 mg/kg",3.25 h
same,Vz_F_obs,"[1]; rat plasma, PO 10 mg/kg",198.88289 L/kg
same,t1/2,"[1]; rat plasma, PO 10 mg/kg",5.34 h
same,Plasma concentration and brain concentration by route of administration,"[1]; rats, IP, IV, PO",higher plasma concentration and brain concentration than oral administration
same,Locomotor ability (grid lines crossed in 30 seconds),[2],restores the Huntington's disease model flies' locomotor ability
same,Olfactory learning performance (ΔRI),[3],improved significantly
same,Survival rate,[4],significantly improved the survival rate
"CO/N=C(\C(=O)N[C@@H]1C(=O)N2C(C(=O)O)=C(CSc3nc(=O)c(=O)[nH]n3C)CS[C@H]12)c1csc(N)n1 [ceftriaxone, (6R,7R)-7-{[(2Z)-2-(2-amino-1,3-thiazol-4-yl)->2-(methoxyimino)acetyl]amino}-3-{[(2-methyl-5,6-dioxo-1,2,5,6-tetrahydro-1,2,4-triazin-3-yl)thio]methyl}-8-oxo-5-thia-1-azabicyclo[4.2.0]oct-2-ene-2-carboxylic acid, reference compound]",Distance moved,[5],move significantly shorter distances
same,Recognition index,[6],scored significantly lower in recognition index
